# Results: patent publication US20250257041A1, “INDUCERS OF INTEGRATED STRESS RESPONSE TO TREAT CANCER” (The Board of Regents of The University of Texas System, priority 2022, published 2025)
# Tested on: HCT116 WT
# Assay: Proliferation of HCT116 colorectal cell line, Cell TiterGlo
# Type: cell-based, human
# Conditions: Homo sapiens, HCT-116, wild type HCT116; 10-point dose response in triplicate; multiple values = separate independent experiments; read-out: HCT116 IC50 (uM) HCT116 WT
# Protocol: Briefly, compounds were tested for their effect on proliferation of HCT116 colorectal cell lines using Cell TiterGlo (Promega). Each compound was tested in a 10-point dose response experiment in triplicate. Multiple values in the column titled HCT116 WT reflect separate independent experiments. The three columns titled “HCT116 WT (repeat)”, “HCT116-CGN2KO” and “HCT116 WT+ISRIB” provide data for selected compounds that were tested simultaneously under three conditions. The HCT116 WT column lists IC50 against the wild type HCT116 colorectal cancer cell line. The HCT116-CGN2KO lists IC50 data for cells in which one component of the integrated stress response, GCN2, has been knocked out using CRISPR technology.
row,SMILES,IC50 [µM]
1,"Cn1nc(-c2ccc(NC(=O)c3cccnc3C(F)(F)F)cc2)cc1NC(=O)c1ccccc1F [SW394629, N-(4-(5-(2-Fluorobenzamido)-1-methyl-1H-pyrazol-3-yl)phenyl)-2-(trifluoromethyl)nicotinamide]",0.017
2,"Cn1nc(-c2ccc(NC(=O)c3ccccc3Cl)cc2)cc1NC(=O)c1cccc(CNC(=O)OC(C)(C)C)c1 [SW394896-1, tert-butyl (3-((3-(4-(2-chlorobenzamido)phenyl)-1-methyl-1H-pyrazol-5-yl)carbamoyl)benzyl)carbamate]",0.05
3,"Cc1ncccc1C(=O)Nc1ccc(-c2cc(NC(=O)c3ccccc3)n(C)n2)cc1 [SW394518, N-(4-(5-Benzamido-1-methyl-1H-pyrazol-3-yl)phenyl)-2-methylnicotinamide]",0.016
4,"Cn1nc(-c2ccc(NC(=O)c3ncccc3Cl)cc2)cc1NC(=O)c1ccccc1 [SW394447, N-(4-(5-Benzamido-1-methyl-1H-pyrazol-3-yl)phenyl)-3-chloropicolinamide]",0.58
5,"C#CCOc1cccc(C(=O)Nc2cc(-c3ccc(NC(=O)c4cc(N=[N+]=[N-])ccc4Cl)cc3)nn2C)c1 [SW393213, 5-Azido-2-chloro-N-(4-(1-methyl-5-(3-(prop-2-yn-1-yloxy)benzamido)-1H-pyrazol-3-yl)phe-nyl)benzamide]",0.37
6,"Cc1ncccc1C(=O)Nc1ccc(-c2cc(N(C)C(=O)c3ccccc3)n(C)n2)cc1 [SW394880-1, 2-methyl-N-(4-(1-methyl-5-(N-methylbenzamido)-1H-pyrazol-3-yl)phenyl)nicotinamide]",1.04
7,"Cn1nc(-c2ccc(NC(=O)c3ccccc3C#CCNC(=O)OC(C)(C)C)cc2)cc1NC(=O)c1ccccc1 [SW394544, tert-butyl(3-(2-((4-(5-benzamido-1-methyl-1H-pyrazol-3-yl)phenyl)carbamoyl)phenyl)prop-2-yn-1-yl)carbamate]",1.2
8,"Cn1nc(-c2ccc(NC(=O)N3CCCC3)cc2)cc1NC(=O)c1ccccc1 [SW394893-1, N-(4-(5-benzamido-1-methyl-1H-pyrazol-3-yl)phenyl)pyrrolidine-1-carboxamide]",> 5
9,"C#Cc1cccc(C(=O)Nc2cc(-c3ccc(NC(=O)c4ccc(C5(C(F)(F)F)N=N5)cc4)cc3)nn2C)c1 [SW393242, 3-Ethynyl-N-(1-methyl-3-(4-(4-(3-(trifluoromethyl)-3H-diazirin-3-yl)benzamido)phenyl)-1H-pyrazol-5-yl)benzamide]",1.35
10,"Cn1nc(-c2ccc(N)cc2)cc1NC(=O)c1ccccc1 [SW388714, N-(3-(4-Aminophenyl)-1-methyl-1H-pyrazol-5-yl)benzamide]",16
11,"Cn1nc(-c2ccc(NC(=O)c3ccccc3Cl)cc2)cc1NC(=O)[C@H]1CCC[C@@H](N)C1 (single isomer, unassigned) [SW394869-isomer 1]",0.04
12,"Cn1nc(-c2ccc(NC(=O)c3ccncc3Cl)cc2)cc1NC(=O)c1ccccc1 [SW394446, N-(4-(5-Benzamido-1-methyl-1H-pyrazol-3-yl)phenyl)-3-chloroisonicotinamide]",0.05
13,"Cn1nc(-c2ccc(NC(=O)c3ccccc3Cl)cc2)cc1NC(=O)Nc1ccccc1 [SW394872, 2-Chloro-N-(4-(1-methyl-5-(3-phenylureido)-1H-pyrazol-3-yl)phenyl)benzamide]",0.11
14,"Cn1nc(-c2ccc(NC(=O)c3ccccc3Cl)cc2)cc1NC(=O)C1CCCCC1 [SW394546, 2-Chloro-N-(4-(5-(Cyclohexanecarboxamido)-1-methyl-1H-pyrazol-3-yl)phenyl)benzamide]",0.033
15,"Cn1nc(-c2ccc(NC(=O)N3CCOCC3)cc2)cc1NC(=O)c1ccccc1 [SW394892-1, N-(4-(5-benzamido-1-methyl-1H-pyrazol-3-yl)phenyl)morpholine-4-carboxamide]",> 5
16,"Cn1nc(-c2ccc(NC(=O)c3ccccc3Cl)cc2)cc1NC(=O)c1ccc(C(=O)c2ccccc2)cc1 [SW393188, N-(4-(5-(4-benzoylbenzamido)-1-methyl-1H-pyrazol-3-yl)phenyl)-2-chlorobenzamide]",0.6

row,SMILES,IC50 [µM]
1,"Cn1nc(-c2ccc(NC(=O)C3CCOCC3)cc2)cc1NC(=O)c1ccccc1 [SW394517, N-(4-(5-Benzamido-1-methyl-1H-pyrazol-3-yl)phenyl)tetrahydro-2H-pyran-4-carboxamide]",0.32
2,"COc1ccc(C(=O)Nc2ccc(-c3cc(NC(=O)c4ccccc4)n(C)n3)cc2)cc1 [SW388716, N-(4-(5-Benzamido-1-methyl-1H-pyrazol-3-yl)phenyl)-4-methoxybenzamide]",19
3,"O=C(Nc1nc(-c2ccc(NC(=O)c3ccccc3Cl)cc2)cs1)c1ccccc1 [SW393296, N-(4-(2-Benzamidothiazol-4-yl)phenyl)-2-chlorobenzamide]",1.9
4,"C#Cc1cccc(C(=O)Nc2cc(-c3ccc(NC(=O)c4ccccc4-c4ccc(N=[N+]=[N-])cc4)cc3)nn2C)c1 [SW394549, 4′-Azido-N-(4-(5-(3-ethynylbenzamido)-1-methyl-1H-pyrazol-3-yl)phe-nyl)[1,1′-biphenyl]-2-carboxamide]",4.1
5,"COc1cccc(C(=O)Nc2ccc(-c3cc(NC(=O)c4ccccc4)n(C)n3)cc2)c1 [SW388711, N-(4-(5-Benzamido-1-methyl-1H-pyrazol-3-yl)phenyl)-3-methoxybenzamide]",1.09
6,"Cn1nc(-c2ccc(NC(=O)OC(C)(C)C)cc2)cc1NC(=O)c1ccccc1 [SW388713, tert-Butyl (4-(5-benzamido-1-methyl-1H-pyrazol-3-yl)phenyl)carbamate]",1.1
7,"Cn1nc(-c2ccc(NC(=O)c3ccccc3Cl)cc2)cc1NC(=O)c1cccc(OCCNc2ccc([N+](=O)[O-])c3nonc23)c1 [SW394971, 2-Chloro-N-(4-(1-methyl-5-(3-(2-((7-nitrobenzo[c][1,2,5]oxadiazol-4-yl)amino)ethoxy)benz-amido)-1H-pyrazol-3-yl)phenyl)benzamide]",0.02
8,"Cn1nc(-c2ccc(NC(=O)c3cc(NC(=O)OC(C)(C)C)ccc3Cl)cc2)cc1NC(=O)c1ccccc1 [SW394967, tert-butyl (3-((4-(5-benzamido-1-methyl-1H-pyrazol-3-yl)phenyl)carbamoyl)-4-chlorophenyl)carbamate]",0.541
9,"Cn1nc(-c2ccc(NC(=O)c3ccccc3-c3cncnc3)cc2)cc1NC(=O)c1ccccc1 [SW394485, N-(4-(5-Benzamido-1-methyl-1H-pyrazol-3-yl)phenyl)-2-(pyrimidin-5-yl)benzamide]",0.107
10,"Cc1c(-c2ccc(NC(=O)c3ccccc3Cl)cc2)nn(C)c1NC(=O)c1ccccc1 [SW393216, N-(4-(5-Benzamido-1,4-dimethyl-1H-pyrazol-3-yl)phenyl)-2-chlorobenzamide]",0.07
11,"Cc1ncccc1C(=O)Nc1ccc(-c2cc(NC(=O)C3CCC(F)(F)CC3)n(C)n2)cc1F [SW394744, N-(4-(5-(4,4-Difluorocyclohexane-1-carboxamido)-1-methyl-1H-pyrazol-3-yl)-2-fluorophen-yl)-2-methylnicotinamide]",> 50
12,"CCn1nc(-c2ccc(NC(=O)c3ccccc3Cl)cc2)cc1NC(=O)c1ccccc1 [SW393214, N-(4-(5-Benzamido-1-ethyl-1H-pyrazol-3-yl)phenyl)-2-chlorobenzamide]",0.57
13,"Cn1nc(-c2ccc(NC(=O)c3ccccc3Cl)cc2)cc1NC(=O)C1CCCC1 [SW394600, 2-Chloro-N-(4-(5-(cyclopentanecarboxamido)-1-methyl-1H-pyrazol-3-yl)phenyl)benzamide]",0.051
14,"Cn1nc(-c2ccc(NC(=O)c3ccccc3Cl)cc2)cc1NC(=O)C1CC2CCC1CC2 (stereo not shown) [SW394969, N-(3-(4-(2-chlorobenzamido)phenyl)-1-methyl-1H-pyrazol-5-yl)bicyclo[2.2.2]octane-2-carboxamide]",0.03
15,"Cn1nc(-c2ccc(NC(=O)c3ccccc3Cl)cc2)cc1NC(=O)c1cccc(NC(=O)OC(C)(C)C)c1 [SW394897-1, tert-butyl (3-((3-(4-(2-chlorobenzamido)phenyl)-1-methyl-1H-pyrazol-5-yl)carbamoyl)phenyl)carbamate]",0.02
16,"Cn1nc(-c2ccc(NC(=O)C3CCN(C(=O)OC(C)(C)C)CC3)cc2)cc1NC(=O)c1ccccc1 [SW394490, tert-butyl4-((4-(5-benzamido-1-methyl-1H-pyrazol-3-yl)phenyl)carbamoyl)piperidine-1-carboxylate]",3.84

# Same assay, conditions: wild type HCT116; 10-point dose response in triplicate; multiple values = separate independent experiments
row,SMILES,HCT116 IC50 (uM) HCT116 WT
1,"Cn1nc(-c2ccc(NC(=O)C3CCCO3)cc2)cc1NC(=O)c1ccccc1 (single isomer, unassigned) [SW394516 (isomer 1)]",inactive
2,"CN1CCN(C(=O)Nc2cc(-c3ccc(NC(=O)c4ccccc4Cl)cc3)nn2C)CC1 [SW394875, N-(3-(4-(2-Chlorobenzamido)phenyl)-1-methyl-1H-pyrazol-5-yl)-4-methylpiperazine-1-carb-oxamide]",inactive
3,"CC(=O)N1CCN(C(=O)Nc2cc(-c3ccc(NC(=O)c4ccccc4Cl)cc3)nn2C)CC1 [SW394877, 4-Acetyl-N-(3-(4-(2-chlorobenzamido)phenyl)-1-methyl-1H-pyrazol-5-yl)piperazine-1-carb-oxamide]",inactive

# Same assay, conditions: wild type HCT116; 10-point dose response in triplicate; multiple values = separate independent experiments; read-out: HCT116 IC50 (uM) HCT116 WT
row,SMILES,IC50 [µM]
1,"C#CCOc1ccccc1C(=O)Nc1ccc(-c2cc(NC(=O)c3cccc(N=[N+]=[N-])c3)n(C)n2)cc1 [SW393066, N-(4-(5-(3-Azidobenzamido)-1-methyl-1H-pyrazol-3-yl)phenyl)-2-(prop-2-yn-1-yloxy)benza-mide]",9.4

# Same assay, conditions: wild type HCT116; tested simultaneously with GCN2KO and +ISRIB; read-out: HCT116 IC50 (uM) HCT116 WT (repeat)
row,SMILES,IC50 [µM]
1,"C#CCOc1ccccc1C(=O)Nc1ccc(-c2cc(NC(=O)c3cccc(N=[N+]=[N-])c3)n(C)n2)cc1 [SW393066, N-(4-(5-(3-Azidobenzamido)-1-methyl-1H-pyrazol-3-yl)phenyl)-2-(prop-2-yn-1-yloxy)benza-mide]",7.18
